From ChEMBL document CHEMBL1201862, “PubChem BioAssay data set” (2004)
Activity calls are given as the source filed them.

Legend:
[1] = target: Small ubiquitin-related modifier 1 (Homo sapiens, UniProt P63165); test: SUMO1 protein-protein binding blockers, potency – biochemical, FRET, dose response (AID 624383); assay type: functional; settings: read-out: IC50_Mean
[2] = target: Dual specificity tyrosine-phosphorylation-regulated kinase 1A (Rattus norvegicus, UniProt Q63470); assay type: biochemical, Homo sapiens
[3] = target: T1, 1-phosphatidylinositol 4,5-bisphosphate phosphodiesterase beta-3 (Homo sapiens, UniProt Q01970); test: Fluorescence-based biochemical high throughput dose response assay to identify inhibitors of phospholipase C isozymes (PLC-B3).
T1 sequence (Q01970 whole entry): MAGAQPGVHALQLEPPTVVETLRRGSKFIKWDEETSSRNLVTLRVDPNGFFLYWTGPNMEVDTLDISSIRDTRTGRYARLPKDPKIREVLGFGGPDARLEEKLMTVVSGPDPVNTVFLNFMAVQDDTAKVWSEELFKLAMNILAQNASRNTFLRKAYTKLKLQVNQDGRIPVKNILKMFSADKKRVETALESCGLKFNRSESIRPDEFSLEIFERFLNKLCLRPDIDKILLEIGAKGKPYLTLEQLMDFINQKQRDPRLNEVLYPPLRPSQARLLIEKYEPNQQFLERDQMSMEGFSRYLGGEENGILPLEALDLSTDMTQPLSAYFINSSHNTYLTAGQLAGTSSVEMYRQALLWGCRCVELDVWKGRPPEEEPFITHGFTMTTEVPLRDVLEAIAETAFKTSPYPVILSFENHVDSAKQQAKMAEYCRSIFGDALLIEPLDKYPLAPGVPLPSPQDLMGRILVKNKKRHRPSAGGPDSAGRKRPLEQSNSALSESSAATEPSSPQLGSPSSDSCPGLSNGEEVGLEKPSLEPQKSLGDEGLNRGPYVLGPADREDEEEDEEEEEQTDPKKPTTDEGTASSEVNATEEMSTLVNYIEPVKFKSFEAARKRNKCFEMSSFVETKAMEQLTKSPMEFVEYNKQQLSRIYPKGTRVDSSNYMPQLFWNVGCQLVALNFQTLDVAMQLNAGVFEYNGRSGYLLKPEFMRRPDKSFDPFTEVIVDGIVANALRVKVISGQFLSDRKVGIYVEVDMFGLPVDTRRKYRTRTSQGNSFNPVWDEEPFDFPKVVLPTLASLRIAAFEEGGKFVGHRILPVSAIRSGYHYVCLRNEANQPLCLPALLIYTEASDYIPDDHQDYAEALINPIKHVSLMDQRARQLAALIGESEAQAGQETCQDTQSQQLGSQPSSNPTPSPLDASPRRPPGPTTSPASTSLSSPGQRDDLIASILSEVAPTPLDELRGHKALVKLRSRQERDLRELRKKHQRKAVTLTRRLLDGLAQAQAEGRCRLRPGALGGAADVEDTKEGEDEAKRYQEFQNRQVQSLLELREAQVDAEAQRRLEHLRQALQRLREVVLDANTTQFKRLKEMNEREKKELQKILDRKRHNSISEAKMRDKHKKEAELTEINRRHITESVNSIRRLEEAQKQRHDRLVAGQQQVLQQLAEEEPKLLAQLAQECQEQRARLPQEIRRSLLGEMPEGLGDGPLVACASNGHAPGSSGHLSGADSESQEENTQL

[4] = target: Sphingosine 1-phosphate receptor 2 (Homo sapiens, UniProt O95136); test: Dose Response Cell Based Assay for Antagonists of the S1P2 Receptor. [Related pubchem assays: 856, 736 ]; assay type: functional
Sequence of Sphingosine 1-phosphate receptor 2 (O95136 whole entry): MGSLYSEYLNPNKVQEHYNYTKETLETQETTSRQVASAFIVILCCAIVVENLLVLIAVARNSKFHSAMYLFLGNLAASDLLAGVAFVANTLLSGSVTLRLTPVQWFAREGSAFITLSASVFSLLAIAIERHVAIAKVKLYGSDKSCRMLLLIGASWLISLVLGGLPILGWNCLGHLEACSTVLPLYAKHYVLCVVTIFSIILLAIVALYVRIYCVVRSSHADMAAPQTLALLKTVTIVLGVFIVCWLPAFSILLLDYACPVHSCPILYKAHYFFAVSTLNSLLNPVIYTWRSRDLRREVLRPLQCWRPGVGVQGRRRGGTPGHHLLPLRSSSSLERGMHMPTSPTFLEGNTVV

Sequence of Small ubiquitin-related modifier 1 (P63165 whole entry): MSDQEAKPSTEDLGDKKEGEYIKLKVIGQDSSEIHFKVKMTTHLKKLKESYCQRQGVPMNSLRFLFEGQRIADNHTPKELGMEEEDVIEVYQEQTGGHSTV

Structure (SMILES): COc1ccc(NS(=O)(=O)c2ccc3c(c2)[C@H]2C=CC[C@H]2[C@@H](c2ccc(C(=O)O)cc2)N3)cc1
- IC50 [1]: 24.5 µM (inactive)

Structure (SMILES): Cn1nc(-c2ccccn2)nc2c(=O)n(C)c(=O)nc1-2
- AC50 [2]: 0.284 µM (active)
- IC50 [3]: > 122 µM (inactive)

Structure (SMILES): CCCCCCCCCCn1c2c(c(=N)c3c1CCC3)CCC2
- IC50 [4]: 2.94 µM (active)
